Values of other authors, collected in patent US7491713B2, “CGRP receptor antagonists” (Merck + Co., Inc., priority 2004, dated 2009).
Ends that are not written are not given here.

Assays:
[1] = test system: marmoset; settings: marmoset (Doods et al. 2000)
[2] = test system: rats; settings: prior administration (Williamson et al. 1997)
[3] = test system: rat; settings: rat (Escott et al. 1995)

Molecule	effect on stimulation-induced increase of facial blood flow [1]	effect on stimulation-induced increase of middle meningeal artery diameter [2]	effect on stimulation-induced increase of facial blood flow [3]
NCCCC[C@H](NC(=O)[C@@H](Cc1cc(Br)c(O)c(Br)c1)NC(=O)N1CCC(N2Cc3ccccc3NC2=O)CC1)C(=O)N1CCN(c2ccncc2)CC1 [BIBN4096BS]	blocked		
CGRP(8-37): a fragment of CGRP that lacks seven N-terminal amino acid residues; a peptide CGRP antagonist (VTHRLAGLLSRSGGVVKNNFVPTNVGSKAF; ends and bridges not checked; UniProt P06881 90-119, looked up, fragment)		blocked	inhibited
